Assay results: ChEMBL document CHEMBL2390823, “Aryl uracil inhibitors of hepatitis C virus NS5B polymerase: synthesis and characterization of analogs with a fused 5,6-bicyclic ring motif” (Bioorg Med Chem Lett, 2013)

Experiments:
Hepatitis C virus [1] = test: Antiviral activity against Hepatitis C virus genotype 1b infected in human HuH7 cells in presence of 40% human plasma; format: functional, organism-based, Hepacivirus hominis; conditions: Huh-7, Plasma
Hepatitis C virus [2] = test: Inhibition of Hepatitis C virus genotype 1b NS5B polymerase; set-up: species or system Hepatitis C virus subtype 1b
Hepatitis C virus [3] = test: Antiviral activity against Hepatitis C virus genotype 1b infected in human HuH7 cells in presence of 5% fetal calf serum; format: functional, organism-based, Hepacivirus hominis; conditions: Huh-7
Hepatitis C virus [4] = test: Antiviral activity against Hepatitis C virus genotype 1a infected in human HuH7 cells in presence of 5% fetal calf serum; format: functional, organism-based, Hepacivirus hominis; conditions: subtype 1a, Huh-7
[5] = Inhibition of Hepatitis C virus genotype 1a NS5B polymerase; set-up: species or system Hepatitis C virus subtype 1a
[6] = (§1) Half life in rat at 5 mg/kg, po; format: ADME, organism-based; set-up: dose 5 mg/kg, route oral; conditions: in vivo
[7] = (§2) Tmax in rat at 5 mg/kg, po; format: ADME, organism-based; set-up: dose 5 mg/kg, route oral; conditions: in vivo
[8] = (§3) AUC (0 to infinity) in rat at 5 mg/kg, po; format: ADME, organism-based, Plasma; set-up: dose 5 mg/kg, route oral, time infinity; conditions: plasma
[9] = Half life in rat at 5 mg/kg, iv; format: ADME, organism-based; set-up: dose 5 mg/kg, route intravenous; conditions: in vivo
[10] = (§4) Plasma clearance in rat at 5 mg/kg, iv; format: ADME, organism-based; set-up: dose 5 mg/kg, route intravenous; conditions: plasma
[11] = (§5) Cmax in rat at 5 mg/kg, po; format: ADME, organism-based; set-up: dose 5 mg/kg, route oral; conditions: in vivo
[12] = (§6) Oral bioavailability in rat at 5 mg/kg; format: ADME, organism-based; conditions: in vivo
[13] = Effective permeability of the compound by PAMPA; format: ADME; conditions: read-out: Peff
Rattus norvegicus [14] = test: as §1; format: ADME, organism-based; set-up: dose 5 mg/kg, route oral; conditions: in vivo
Rattus norvegicus [15] = test: as §2; format: ADME, organism-based; set-up: dose 5 mg/kg, route oral; conditions: in vivo
Rattus norvegicus [16] = test: as §3; format: ADME, organism-based, Plasma; set-up: dose 5 mg/kg, route oral, time infinity; conditions: in vivo
Rattus norvegicus [17] = test: as §4; format: ADME, organism-based; set-up: dose 5 mg/kg, route intravenous; conditions: in vivo
Rattus norvegicus [18] = test: as §5; format: ADME, organism-based; set-up: dose 5 mg/kg, route oral; conditions: in vivo
Rattus norvegicus [19] = test: as §6; format: ADME, organism-based; conditions: in vivo

Row | EC50 (Hepatitis C virus [1]) | IC50 (Hepatitis C virus [2]) | EC50 (Hepatitis C virus [3]) | EC50 (Hepatitis C virus [4]) | IC50 [5] | half-life [6] | Tmax [7] | AUC(0-inf) [8] | half-life [9] | clearance [10] | Cmax [11] | bioavailability [12] | Papp [13] | t1/2 (Rattus norvegicus [14]) | Tmax (Rattus norvegicus [15]) | AUC (Rattus norvegicus [16]) | CL (Rattus norvegicus [17]) | Cmax (Rattus norvegicus [18]) | F (Rattus norvegicus [19]) | SMILES
1 | 260 nM | 21 nM | 22 nM | 240 nM | 9 nM | – | – | – | – | – | – | – | – | – | – | – | – | – | – | COc1c(-c2ccc3c(CNS(C)(=O)=O)coc3c2)cc(-n2ccc(=O)[nH]c2=O)cc1C(C)(C)C
2 | 560 nM | 41 nM | 89 nM | 480 nM | 16 nM | 2.4 h | 0.25 h | 5100 ng·h/mL | 2.3 h | 10.2 mL/min/kg | 1010 ng/mL | 62% | – | – | – | – | – | – | – | COc1c(-c2ccc3c(c2)CCC3(C)CNS(C)(=O)=O)cc(-n2ccc(=O)[nH]c2=O)cc1C(C)(C)C (centres undefined)
3 | 22 nM | 11 nM | 3 nM | 14 nM | 6 nM | 3 h | 6.17 h | 7200 ng·h/mL | 1.9 h | 12.8 mL/min/kg | 660 ng/mL | 86% | 5.43 ×10⁻⁶ cm/s | – | – | – | – | – | – | COc1c(-c2ccc3c(c2)CC=C3CNS(C)(=O)=O)cc(-n2ccc(=O)[nH]c2=O)cc1C(C)(C)C
4 | 50 nM | 20 nM | 100 nM | 4 nM | 7 nM | – | – | – | – | – | – | – | – | – | – | – | – | – | – | COc1c(-c2ccc3c(c2)CC=C3CN(C)S(C)(=O)=O)cc(-n2ccc(=O)[nH]c2=O)cc1C(C)(C)C
5 | > 1000 nM | 215 nM | > 1000 nM | 1000 nM | 185 nM | – | – | – | – | – | – | – | 4.06 ×10⁻⁶ cm/s | – | – | – | – | – | – | COc1c(-c2ccc3c(c2)CC=C3C(C)(C)NS(C)(=O)=O)cc(-n2ccc(=O)[nH]c2=O)cc1C(C)(C)C
6 | 1 nM | 3 nM | 1 nM | 2 nM | 3 nM | 3 h | 2.5 h | 880 ng·h/mL | 2.8 h | 19.8 mL/min/kg | 120 ng/mL | 18% | 0.47 ×10⁻⁶ cm/s | – | – | – | – | – | – | COc1c(-c2ccc3c(c2)CC/C3=N\NS(C)(=O)=O)cc(-n2ccc(=O)[nH]c2=O)cc1C(C)(C)C
7 | 950 nM | 47 nM | > 100 nM | 140 nM | 33 nM | – | – | – | – | – | – | – | 0.24 ×10⁻⁶ cm/s | – | – | – | – | – | – | COc1c(-c2ccc3c(c2)CCC3NNS(C)(=O)=O)cc(-n2ccc(=O)[nH]c2=O)cc1C(C)(C)C (centres undefined)
8 | 18 nM | 22 nM | 27 nM | 51 nM | 11 nM | – | – | – | 1.1 h | – | – | – | 0.22 ×10⁻⁶ cm/s | 1 h | 0.33 h | 500 ng·h/mL | 25.5 mL/min/kg | 30 ng/mL | 1.4% | COc1c(C(=O)Nc2ccc(NS(C)(=O)=O)cc2)cc(N2CCC(=O)NC2=O)cc1C(C)(C)C
9 | – | 510 nM | > 1000 nM | > 1000 nM | 540 nM | – | – | – | – | – | – | – | – | – | – | – | – | – | – | COc1c(-c2ccc3c(CNS(C)(=O)=O)noc3c2)cc(-n2ccc(=O)[nH]c2=O)cc1C(C)(C)C
10 | 46 nM | 10 nM | 3 nM | 27 nM | 5 nM | 3.2 h | 0.5 h | 9300 ng·h/mL | 3.6 h | 4.5 mL/min/kg | 1410 ng/mL | 41% | 0.81 ×10⁻⁶ cm/s | – | – | – | – | – | – | COc1c(-c2ccc3c(CNS(C)(=O)=O)csc3c2)cc(-n2ccc(=O)[nH]c2=O)cc1C(C)(C)C
11 | – | 45 nM | > 1000 nM | > 1000 nM | 19 nM | – | – | – | – | – | – | – | 1.4 ×10⁻⁶ cm/s | – | – | – | – | – | – | COc1c(-c2ccc3nc(NS(C)(=O)=O)sc3c2)cc(-n2ccc(=O)[nH]c2=O)cc1C(C)(C)C
12 | > 10000 nM | 245 nM | > 1000 nM | > 1000 nM | 180 nM | – | – | – | – | – | – | – | 0.81 ×10⁻⁶ cm/s | – | – | – | – | – | – | COc1c(-c2ccc3cc(CNS(C)(=O)=O)sc3c2)cc(-n2ccc(=O)[nH]c2=O)cc1C(C)(C)C
13 | 13 nM | 18 nM | 3 nM | 20 nM | 8 nM | 2.3 h | 0.33 h | 13500 ng·h/mL | 1.8 h | 7.5 mL/min/kg | 2360 ng/mL | 119% | 8.93 ×10⁻⁶ cm/s | – | – | – | – | – | – | COc1c(-c2ccc3c(c2)CCC3CNS(C)(=O)=O)cc(-n2ccc(=O)[nH]c2=O)cc1C(C)(C)C (centres undefined)
